Patent US20250186408A1, “TREATMENT OF PHARMACORESISTANT EPILEPSY” (Katholieke Universiteit Leuven, priority 2021, published 2025)

How the values were obtained:
Format in all cases: cell-based
AR [1] = biological target: T1, AR (Homo sapiens, UniProt P10275); assay: NHR Nuclear Translocation AR Antagonist
T1 construct: enzyme fragment for PathHunter enzyme fragment complementation (EFC)
T1 sequence (P10275 1-920): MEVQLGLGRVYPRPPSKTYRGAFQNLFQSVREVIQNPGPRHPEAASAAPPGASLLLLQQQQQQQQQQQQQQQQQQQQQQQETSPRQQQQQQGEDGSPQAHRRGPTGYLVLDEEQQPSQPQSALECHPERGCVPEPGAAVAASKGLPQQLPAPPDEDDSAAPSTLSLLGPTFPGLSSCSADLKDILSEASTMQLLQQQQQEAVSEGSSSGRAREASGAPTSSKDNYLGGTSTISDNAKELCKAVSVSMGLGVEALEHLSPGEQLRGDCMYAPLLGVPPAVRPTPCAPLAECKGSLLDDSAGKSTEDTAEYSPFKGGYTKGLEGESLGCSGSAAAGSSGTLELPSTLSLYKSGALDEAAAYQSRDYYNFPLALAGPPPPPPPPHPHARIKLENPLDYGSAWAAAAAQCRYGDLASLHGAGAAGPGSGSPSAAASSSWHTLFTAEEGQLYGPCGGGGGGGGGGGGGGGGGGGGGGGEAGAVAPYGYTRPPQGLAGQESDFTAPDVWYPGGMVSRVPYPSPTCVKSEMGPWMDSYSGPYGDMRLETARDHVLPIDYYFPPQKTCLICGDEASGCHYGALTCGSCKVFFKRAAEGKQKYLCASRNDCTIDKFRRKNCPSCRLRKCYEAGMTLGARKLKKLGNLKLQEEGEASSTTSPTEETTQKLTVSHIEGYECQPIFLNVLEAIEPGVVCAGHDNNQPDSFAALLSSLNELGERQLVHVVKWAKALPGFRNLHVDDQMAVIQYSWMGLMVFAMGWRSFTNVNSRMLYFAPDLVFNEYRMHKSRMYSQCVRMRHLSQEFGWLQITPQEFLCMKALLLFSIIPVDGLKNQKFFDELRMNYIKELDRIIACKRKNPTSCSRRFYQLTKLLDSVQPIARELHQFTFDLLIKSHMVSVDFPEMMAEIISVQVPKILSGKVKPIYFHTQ
Method: (§1) In vitro pharmacological profiling of compounds was done against 78 functional assays for 47 common off-targets (30) by Eurofins DiscoverX Corporation (Fremont, CA, USA) using their SAFETYscan E/IC50 ELECT service (Cat Ref 87-1003DR, Safety47 Panel Dose Response). The following assays were performed: (1) GPCR cAMP modulation, (2) calcium mobilization, (3) nuclear hormone receptor assays, (4) KINOMEscan binding assays, (5) ion channel assays, (6) transporter assays and (7) enzymatic assays. Compounds were tested in a range of 10 concentrations, following a 3-fold serial dilution, starting from 10 μM. The assays were performed utilizing the PathHunter enzyme fragment complementation (EFC) technology, FLIPR®-based cellular screening assays, and KINOMEscan kinase binding assays.
(§2) Prior to testing, PathHunter NHR cell lines were expanded from freezer stocks and cells were seeded in a total volume of 20 μL into white walled 384-well microplates and incubated at 37° C. […] Microplates were read following signal generation with a PerkinElmer Envision™ instrument for chemiluminescent signal detection. Compound activity was analysed using CBIS data analysis suite (ChemInnovation, CA). For agonist mode assays, percentage activity was calculated using the following equation:

AR [2] = biological target: T1, AR; assay: NHR Nuclear Translocation AR Agonist
Method: as §1, §2

GR [3] = biological target: T2, GR (Homo sapiens, UniProt P04150); assay: NHR Protein Interaction GR Agonist
T2 construct: enzyme fragment for PathHunter enzyme fragment complementation (EFC)
T2 sequence (P04150 1-777): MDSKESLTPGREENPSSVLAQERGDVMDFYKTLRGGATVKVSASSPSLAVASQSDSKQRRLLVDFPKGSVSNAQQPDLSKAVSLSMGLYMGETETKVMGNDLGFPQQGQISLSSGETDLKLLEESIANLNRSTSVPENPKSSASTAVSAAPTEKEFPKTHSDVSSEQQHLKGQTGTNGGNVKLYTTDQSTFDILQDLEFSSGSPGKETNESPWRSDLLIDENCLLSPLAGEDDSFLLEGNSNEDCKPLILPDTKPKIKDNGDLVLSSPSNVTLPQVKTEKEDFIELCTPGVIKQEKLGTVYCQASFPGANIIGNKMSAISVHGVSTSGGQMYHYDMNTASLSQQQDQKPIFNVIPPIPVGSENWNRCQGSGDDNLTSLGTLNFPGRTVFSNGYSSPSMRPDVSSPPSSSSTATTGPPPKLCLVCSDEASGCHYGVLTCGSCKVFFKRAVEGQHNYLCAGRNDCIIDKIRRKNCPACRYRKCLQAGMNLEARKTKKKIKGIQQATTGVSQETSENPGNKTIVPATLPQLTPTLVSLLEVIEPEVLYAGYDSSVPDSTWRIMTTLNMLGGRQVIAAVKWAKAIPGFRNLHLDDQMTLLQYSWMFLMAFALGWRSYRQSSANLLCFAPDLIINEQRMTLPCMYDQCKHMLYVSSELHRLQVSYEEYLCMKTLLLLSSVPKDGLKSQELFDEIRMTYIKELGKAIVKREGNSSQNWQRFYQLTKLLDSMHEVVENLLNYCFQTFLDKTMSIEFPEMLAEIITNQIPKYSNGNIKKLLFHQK
Method: as §1, §2

GR [4] = biological target: T2, GR; assay: NHR Protein Interaction GR Antagonist
Method: as §1, §2

## Clc1cccc(C#Cc2n[nH]c3ncccc23)c1 [Compound 10.1, 3-((3-chlorophenyl)ethynyl)-1H-pyrazolo[3,4-b]pyridine]
AR [1]
  IC50: > 10 µM
AR [1]; NHR Nuclear Translocation AR Antagonist, read-out: Max response
  Emax: 4.6%
AR [2]
  EC50: > 10 µM
AR [2]; NHR Nuclear Translocation AR Agonist, read-out: Max response
  Emax: 0%
GR [3]; read-out: Max response
  Emax: 0%
GR [3]; read-out: RC50, result type EC50
  EC50: > 10 µM
GR [4]; read-out: Max response
  Emax: 2.6%
GR [4]; read-out: RC50, result type IC50
  IC50: > 10 µM
